From patent publication US20250340561A1, “QUINAZOLINE COMPOUND FOR INDUCING DEGRADATION OF G12D MUTANT KRAS PROTEIN” (Astellas Pharma Inc., priority 2021, published 2025) come the findings set out here.

T1 sequence (P01116 1-188 isoform P01116-2 G12D): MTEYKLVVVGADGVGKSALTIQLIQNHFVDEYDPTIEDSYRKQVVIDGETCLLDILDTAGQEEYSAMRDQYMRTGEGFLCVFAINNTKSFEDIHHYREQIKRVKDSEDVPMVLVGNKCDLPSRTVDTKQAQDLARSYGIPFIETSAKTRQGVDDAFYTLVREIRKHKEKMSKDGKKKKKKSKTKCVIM

This assay concerns the target T1, KRAS G12D (Homo sapiens, UniProt P01116, G12D).
T1 construct: host or cells: AsPC-1 human pancreatic cancer cells
Kind of assay: Test Example 1-1: KRAS degradation action in AsPC-1, sandwich ELISA. As to conditions: AsPC-1 cells, 24 hours treatment, corrected with β-actin, 0% = 10 μM Example No. 7. It is filed as cell-based. As for the experimental part:
Test Example 1-1: Evaluation of KRAS Degradation Action on Human G12D Mutant KRAS-Positive Pancreatic Cancer Line AsPC-1
The KRAS degradation action of test compounds was evaluated by measuring the expression levels of KRAS G12D by a sandwich ELISA method.
AsPC-1 cells (ATCC, CRL-1682) were seeded at 90 μL per well on a 96-well plate (from IWAKI) to give 1.8×10^4 cells per well. As for the cell culture conditions, RPMI 1640 medium (from Merck) containing 10% fetal bovine serum (from Cytiva) was used in the presence of 5% CO2 at 37° C.
The next day, the test compounds (10 points having final concentrations in the range of 10 μM to 0.3 nM) were diluted 100-fold with a fresh medium and were added at 10 μL per well. The same treatments were each applied to 4 wells. In addition, in production of the sandwich ELISA plate, a capture antibody (anti-KRAS antibody, from LS Bio) mixed in Phosphate Buffered Saline [PBS; from FUJIFILM Wako Pure Chemical Corporation] in 1,000-fold dilution was added at 20 μL per well to a Maxisorp 384-well plate (from Thermo Scientific), and after attaching a seal, the plate was allowed to stand at 4° C. overnight.
After 24 hours of the test compound treatment, the culture supernatant was discarded. Immediately, a cytolytic solution (produced by adding, to a RIPA buffer [from Thermo Scientific], a Halt Protease Phosphatese Inhibitor Cocktail [from Thermo Scientific] and Benzonase Nuclease [from Merck] in amounts of 1/100 and 1/500, respectively) was added at 50 μL per well, and the cells were lysed. Then, equally treated 4 wells were combined to prepare a cell lysate sample of 200 μL in total. For KRAS detection, the Maxisorp 384-well plate which had been treated with the capture antibody since the previous day was washed (twice with 25 μL each) with 0.05% Tween-20-containing PBS (from Thermo Scientific; 20×PBS Tween-20 was diluted 20-fold with ion exchange water and used) and was treated with a blocking solution (Intercept Blocking Buffer; from LI-COR Biosciences) for 60 minutes, and then, the cell lysate samples were added at 20 μL per well. For 3-actin detection, the cell lysate samples were added as they were at 20 μL per well to the Maxisorp 384-well plate, and after attaching a seal, the plate was allowed to stand at 4° C. overnight.
The next day, after washing the KRAS detection plate with 0.05% Tween-20-containing PBS, an anti-Ras (G12D mutant specific) antibody (from Cell Signaling Technology) diluted 1,000-fold with a blocking solution was added at 20 μL per well as a detection antibody, and the plate was allowed to stand for 5 hours at room temperature. Then, the plate was centrifuged to remove the supernatant (using a centrifugal dehydrator machine, the supernatant was removed by the same method hereinafter) and was washed with 0.05% Tween-20-containing PBS. Then, an anti-Rabbit IgG […] antibody (from Cell Signaling Technology) diluted 1,000-fold with a blocking solution was added at 20 μL per well as a secondary antibody, and the plate was allowed to stand for 1 hour at room temperature. The plate was centrifuged to remove the supernatant and was washed with 0.05% Tween-20-containing PBS. Then, a BM chemiluminescent ELISA substrate (from Merck) was added at 20 μL per well, and the amounts of luminescence were measured with 2103 EnVision (from PerkinElmer). In addition, the 3-actin detection plate was washed with 0.05% Tween-20-containing PBS and was treated with a blocking solution for 60 minutes, and then, an anti-β-actin antibody (from Abcam) diluted 1,000-fold with a blocking solution was added at 20 μL per well as a detection antibody. The plate was allowed to stand for 5 hours at room temperature. Then, the plate was centrifuged to remove the supernatant and washed with 0.05% Tween-20-containing PBS, and then, an anti-Mouse IgG RP-linked antibody (from Cell Signaling Technology) diluted 1,000-fold with a blocking solution was added at 20 μL per well as a secondary antibody. […]
On the technique in general: ELISA stands for enzyme-linked immunosorbent assay.
As usually defined, the DC50 is the concentration giving 50% degradation. Take `Cc1c(F)cc2[nH]ncc2c1-c1c(C2CC2)cc2c(N3C[C@@H]4C[C@H]3CN4)nc(OC3CCOCC3)nc2c1OCc1ccc(-c2cn([C@H](C(=O)N3C[C@H](O)C[C@H]3C(=O)N[C@@H](CO)c3ccc(N4CCOC4=O)cc3)C(C)C)nn2)cc1` [Example 20, (4R)-1-[(2S)-2-(4-{4-[({6-cyclopropyl-4-[(1S,4S)-2,5-diazabicyclo[2.2.1]heptan-2-yl]-7-(6-fluoro-5-methyl-1H-indazol-4-yl)-2-[(oxan-4-yl)oxy]quinazolin-8-yl}oxy)methyl]phenyl}-1H-1,2,3-triazol-1-yl)-3-methylbutanoyl]-4-hydroxy-N-{(1R)-2-hydroxy-1-[4-(2-oxo-1,3-oxazolidin-3-yl)phenyl]ethyl}-L-prolinamide]: half-maximal degradation (DC50) was put at 100 nM. For `Cc1ncsc1-c1ccc([C@H](CO)NC(=O)[C@@H]2C[C@@H](O)CN2C(=O)[C@H](C(C)C)n2cc(-c3ccc(COc4c(-c5c(C)c(F)cc6[nH]ncc56)c(C5CC5)cc5c(N6C[C@@H]7C[C@H]6CN7)nc(OC6CCN(CC(F)F)CC6)nc45)cc3)nn2)cc1` [Example 21] the value was 72 nM. For `Cc1c(F)cc2[nH]ncc2c1-c1c(C2CC2)cc2c(N3C[C@@H]4C[C@H]3CN4)nc(OC3CCOCC3)nc2c1OCc1ccc(-c2cn([C@H](C(=O)N3C[C@H](O)C[C@H]3C(=O)N[C@@H](CO)c3ccc(-c4ccnn4C)cc3)C(C)C)nn2)cc1` [Example 22] the value was 62 nM; for `Cc1c(F)cc2[nH]ncc2c1-c1c(C2CC2)cc2c(N3C[C@@H]4C[C@H]3CN4)nc(OC3CCOCC3)nc2c1OCc1ccc(-c2cn([C@H](C(=O)N3C[C@H](O)C[C@H]3C(=O)N[C@@H](CO)c3ccc(-c4ccnn4C)cc3)C(C)C)nn2)cc1` [Example 23], 34 nM.

In the case of `Cc1ncsc1-c1ccc([C@H](CO)NC(=O)[C@@H]2C[C@@H](O)CN2C(=O)[C@H](C(C)C)n2cc(-c3ccc(COc4c(-c5c(C)c(F)cc6[nH]ncc56)c(C5CC5)cc5c(N6C[C@@H]7C[C@H]6CN7)nc(OC6CCN(C7COC7)CC6)nc45)cc3)nn2)cc1` [Example 24], the 50% degradation concentration (DC50) came out at 103 nM.

On to `CCc1ccncc1Oc1nc(N2C[C@@H]3C[C@H]2CN3)c2cc(C3CC3)c(-c3c(C)c(F)cc4[nH]ncc34)c(OCc3ccc(-c4cn([C@H](C(=O)N5C[C@H](O)C[C@H]5C(=O)N[C@@H](CO)c5ccc(-c6scnc6C)cc5)C(C)C)nn4)cc3)c2n1` [Example 25], for which the DC50 was 44 nM. For `CCn1nccc1-c1ccc([C@H](CO)NC(=O)[C@@H]2C[C@@H](O)CN2C(=O)[C@H](C(C)C)n2cc(-c3ccc(COc4c(-c5c(C)c(F)cc6[nH]ncc56)c(C5CC5)cc5c(N6C[C@@H]7C[C@H]6CN7)nc(OC6CCOCC6)nc45)cc3)nn2)cc1` [Example 26] the value was 24 nM. On to `Cc1ncsc1-c1ccc([C@H](CO)NC(=O)[C@@H]2C[C@@H](O)CN2C(=O)[C@H](C(C)C)n2cc(-c3ccc(COc4c(-c5c(C)c(F)cc6[nH]ncc56)c(C5CC5)cc5c(N6C[C@@H]7C[C@H]6CN7)nc(OC6COC6)nc45)cc3)nn2)cc1` [Example 27], for which the DC50 was found to be 55 nM. Next, `Cc1ncsc1-c1ccc([C@H](CO)NC(=O)[C@@H]2C[C@@H](O)CN2C(=O)[C@H](C(C)C)n2cc(-c3ccc(COc4c(-c5c(C)c(F)cc6[nH]ncc56)c(C5CC5)cc5c(N6C[C@@H]7C[C@H]6CN7)nc(O[C@@H]6CCOC6)nc45)cc3)nn2)cc1` [Example 28]: 45 nM. In turn, `Cc1ncsc1-c1ccc([C@H](CO)NC(=O)[C@@H]2C[C@@H](O)CN2C(=O)[C@H](C(C)C)n2cc(-c3ccc(COc4c(-c5c(C)c(F)cc6[nH]ncc56)c(C5CC5)cc5c(N6C[C@@H]7C[C@H]6CN7)nc(O[C@H]6CCOC6)nc45)cc3)nn2)cc1` [Example 29] came in with a 50% degradation concentration (DC50) of 33 nM.
